What was measured:
TNFα = assay: IRAK4 Monocyte TNFα Cell Based Assay; settings: cryopreserved human monocytes, LPS 50 pg/ml stimulation, TNFα by TR-FRET
In short: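 Cells (5,000/well) preincubated with compound 1 h at 37° C (0.1% DMSO), then stimulated 4 h with 50 pg/ml LPS. Supernatant TNFα quantified by TR-FRET (665/615 nm ratio). Percent of control scaled between unstimulated (0%) and LPS-stimulated (100%) wells.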

IRAK4 enzyme = IRAK4 enzyme (Homo sapiens (Human), UniProt Q9NWZ3); assay: IRAK4 Biochemical Assay (TR-FRET/HTRF); settings: 0.75 nM IRAK4, 500 μM ATP, STK1 peptide
IRAK4 enzyme, sequence (Q9NWZ3 whole entry): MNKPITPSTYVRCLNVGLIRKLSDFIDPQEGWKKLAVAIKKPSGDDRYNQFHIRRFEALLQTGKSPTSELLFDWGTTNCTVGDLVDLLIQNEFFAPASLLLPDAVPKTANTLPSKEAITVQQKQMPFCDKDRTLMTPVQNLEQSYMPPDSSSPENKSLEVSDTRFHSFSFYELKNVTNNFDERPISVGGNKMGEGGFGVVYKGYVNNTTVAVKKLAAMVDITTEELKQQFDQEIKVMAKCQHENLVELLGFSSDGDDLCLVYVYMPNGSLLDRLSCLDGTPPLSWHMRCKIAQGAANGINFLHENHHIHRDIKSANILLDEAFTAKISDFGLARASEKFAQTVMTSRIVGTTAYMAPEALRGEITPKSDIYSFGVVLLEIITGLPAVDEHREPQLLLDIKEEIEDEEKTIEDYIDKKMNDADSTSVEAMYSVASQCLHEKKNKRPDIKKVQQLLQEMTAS
In short: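 Compound was preincubated 15 min with 0.75 nM IRAK4 and 2 µM STK1 peptide. Reaction ran 120 min at room temperature with 500 µM ATP in HEPES pH 7.0 buffer (5 mM MgCl2, 1 mM DTT), then HTRF detection of phosphopeptide as the 665/615 nm ratio. % inhibition is relative to no-inhibitor and saturating-staurosporine controls.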

SMILES | EC50 (TNFα) [nM] | IC50 (IRAK4 enzyme) [nM] | EC50 (TNFα; Monocyte) [nM]
CC(C)Nc1cc(-c2ccc3cc(C#N)cnn23)ncc1-n1cc([C@H]2CC[C@H](NC(=O)OC(C)(C)C)CC2)nn1 [Compound 64, tert-butyl ((1r,4r)-4-(1-(6-(3-cyanopyrrolo[1,2-b]pyridazin-7-yl)-4-(isopropylamino)pyridin-3-yl)-1H-1,2,3-triazol-4-yl)cyclohexyl)carbamate] | 121 | 2 | 
CC(C)(O)[C@H](F)Cn1cc(-c2cnc(-c3ccc4cc(C#N)cnn34)cc2N[C@H]2CC[C@H](c3cnn(C(F)F)c3)CC2)nn1 [Compound 15, 7-(4-(((1r,4R)-4-(1-(difluoromethyl)-1H-pyrazol-4-yl)cyclohexyl)amino)-5-(1-((R)-2-fluoro-3-hydroxy-3-methylbutyl)-1H-1,2,3-triazol-4-yl)pyridin-2-yl)pyrrolo[1,2-b]pyridazine-3-carbonitrile] | 18 | 3 | 
COC(=O)NC[C@H]1C[C@H](Nc2cc(-c3ccc4cc(C#N)cnn34)ncc2-c2nnn(C[C@@H](F)C(C)(C)O)c2F)C1 [Compound 5, methyl (((1R,3r)-3-((2-(3-cyanopyrrolo[1,2-b]pyridazin-7-yl)-5-(5-fluoro-1-((R)-2-fluoro-3-hydroxy-3-methylbutyl)-1H-1,2,3-triazol-4-yl)pyridin-4-yl)amino)cyclobutyl)methyl)carbamate] | 145 | 3 | 
CC(C)Nc1cc(-c2ccc3cc(C#N)cnn23)ncc1-c1cn(CCN2CCOCC2)nn1 [Compound 47, 7-(4-(isopropylamino)-5-(1-(2-morpholinoethyl)-1H-1,2,3-triazol-4-yl)pyridin-2-yl)pyrrolo[1,2-b]pyridazine-3-carbonitrile] |  | < 1 | 33
COC(=O)NC[C@H]1C[C@H](Nc2cc(-c3ccc4cc(C#N)cnn34)ncc2-c2cn(CC#N)nn2)C1 [Compound 16, methyl (((1r,3r)-3-((5-(1-(cyanomethyl)-1H-1,2,3-triazol-4-yl)-2-(3-cyanopyrrolo[1,2-b]pyridazin-7-yl)pyridin-4-yl)amino)cyclobutyl)methyl)carbamate] | 33 | 1 | 
CC(C)(O)[C@H](F)Cn1cc(-c2cnc(-c3ccc4cc(C#N)cnn34)cc2NCC#N)nn1 [Compound 2, (R)-7-(4-((cyanomethyl)amino)-5-(1-(2-fluoro-3-hydroxy-3-methylbutyl)-1H-1,2,3-triazol-4-yl)pyridin-2-yl)pyrrolo[1,2-b]pyridazine-3-carbonitrile] |  | 1 | 15
CNc1cc(-c2ccc3cc(C#N)cnn23)ncc1-c1cn(CC(F)(F)C(C)(C)O)nn1 [Compound 28, 7-(5-(1-(2,2-difluoro-3-hydroxy-3-methylbutyl)-1H-1,2,3-triazol-4-yl)-4-(methylamino)pyridin-2-yl)pyrrolo[1,2-b]pyridazine-3-carbonitrile] |  | 3 | 94
CNc1cc(-c2ccc3cc(C#N)cnn23)ncc1-c1cn(C)nn1 [Compound 36, 7-(5-(1-methyl-1H-1,2,3-triazol-4-yl)-4-(methylamino)pyridin-2-yl)pyrrolo[1,2-b]pyridazine-3-carbonitrile] |  | 14 | 324
CNc1cc(-c2ccc3cc(C#N)cnn23)ncc1-c1cn([C@H]2CC[C@H](NC(=O)C3CC3)CC2)nn1 [Compound 20, N-((1r,4r)-4-(4-(6-(3-cyanopyrrolo[1,2-b]pyridazin-7-yl)-4-(methylamino)pyridin-3-yl)-1H-1,2,3-triazol-1-yl)cyclohexyl)cyclopropanecarboxamide] | 62 | 1 | 

Now from value to compound:

EC50 (TNFα) [nM] | IC50 (IRAK4 enzyme) [nM] | EC50 (TNFα; Monocyte) [nM] | SMILES
 | < 1 | 28 | CNc1cc(-c2ccc3cc(C#N)cnn23)ncc1-c1cn(C[C@@H](F)C(C)(C)O)nn1 [Compound 37, (R)-7-(5-(1-(2-fluoro-3-hydroxy-3-methylbutyl)-1H-1,2,3-triazol-4-yl)-4-(methylamino)pyridin-2-yl)pyrrolo[1,2-b]pyridazine-3-carbonitrile]
 | 2 | 171 | CC(C)Nc1cc(-c2ccc3cc(C#N)cnn23)ncc1-c1cn(C2COC2)nn1 [Compound 53, 7-(4-(isopropylamino)-5-(1-(oxetan-3-yl)-1H-1,2,3-triazol-4-yl)pyridin-2-yl)pyrrolo[1,2-b]pyridazine-3-carbonitrile]
17 | < 1 |  | COC(=O)NCC1CC(Nc2cc(-c3ccc4cc(C#N)cnn34)ncc2-c2cn(CC3CC(O)C3)nn2)C1 [Compound 8, methyl (((1R,3r)-3-((2-(3-cyanopyrrolo[1,2-b]pyridazin-7-yl)-5-(1-(((1s,3S)-3-hydroxycyclobutyl)methyl)-1H-1,2,3-triazol-4-yl)pyridin-4-yl)amino)cyclobutyl)methyl)carbamate]
4 | < 1 |  | COC(=O)NC[C@H]1C[C@H](Nc2cc(-c3ccc4cc(C#N)cnn34)ncc2-c2cn(CCC(C)(C)O)nn2)C1 [Compound 30, methyl (((1r,3r)-3-((2-(3-cyanopyrrolo[1,2-b]pyridazin-7-yl)-5-(1-(3-hydroxy-3-methylbutyl)-1H-1,2,3-triazol-4-yl)pyridin-4-yl)amino)cyclobutyl)methyl)carbamate]
 | 2 | 184 | CC(C)Nc1cc(-c2ccc3cc(C#N)cnn23)ncc1-n1cc(C2CCOCC2)nn1 [Compound 60, 7-(4-(isopropylamino)-5-(4-(tetrahydro-2H-pyran-4-yl)-1H-1,2,3-triazol-1-yl)pyridin-2-yl)pyrrolo[1,2-b]pyridazine-3-carbonitrile]
 | < 1 | 132 | CC(C)Nc1cc(-c2ccc3cc(C#N)cnn23)ncc1-c1cn(C(C)C)nn1 [Compound 51, 7-(5-(1-isopropyl-1H-1,2,3-triazol-4-yl)-4-(isopropylamino)pyridin-2-yl)pyrrolo[1,2-b]pyridazine-3-carbonitrile]

Source: patent US11053250B2, “Pyrrolo[1,2-b]pyridazine derivatives” (Gilead Sciences, Inc., priority 2018, dated 2021)
